Measured values taken from patent US6790629B2 (The Regents of the University of California, priority 1997, dated 2004).

Key:
VR1 [1] = molecular target: T1, VR1 (Rattus norvegicus, UniProt O35433); test: Whole-cell two-electrode voltage clamp of VR1-expressing Xenopus oocytes (vanilloid agonists and antagonists); assay type: cell-based; conditions: for recovery of current response following agonist removal: washout; for Hill coefficient: from agonist concentration-response analysis in VR1-expressing oocytes
T1 construct: open reading frame encoding a protein of 838 amino acids; expressed in transfected cells; host or cells: Xenopus laevis oocytes injected with VR1 cRNA
Procedure: Briefly, cRNA transcripts were synthesized from Not1-linearized VR1 cDNA templates using T7 RNA polymerase 17. Defolliculated Xenopus laevis oocytes were injected with 0.5-5 ng VR1 cRNA. Four to seven days after injection, two electrode voltage clamp recording was performed (Ehold=−60 mV for IC50 curve and thermal stimulation experiments, and […] for all other experiments) using a Geneclamp 500 amplifier (Axon Instruments) and a MacLab A/D converter (Maclab). The recording chamber was perfused at a rate of 2 ml/min with frog ringers solution containing (mM) 90 NaCl; 1.0 KCl, 2.4 NaHCO3, 0.1 BaCl2, 1.0 MgCl2, and 10 HEPES, pH 7.6. at room temperature. Prior to performing the store-operated current assays, oocytes were incubated for 1-2 hrs in calcium-free, barium-free frog ringers solution containing 1 mM EGTA and 1 μM Thapsigargin. During voltage clamp recording, these oocytes were intermittently exposed to frog ringer's solution containing 2 mM Ca2+ and no EGTA to detect calcium-dependent currents (15 second pulses at 2 minute intervals) (Petersen et al. 1995 Biochem J. 311:4144).
VR1 was expressed in Xenopus oocytes as described above (Example 3), except that CaCl2 (2 mM) was used in place of BaCl2 when generating the capsazepine inhibition curve. […] Membrane currents were recorded in the whole cell voltage clamp configuration (Vhold=−40 mV).

[2] = system: chick orthologue of rat VR1 (pCVR2); test: Electrophysiological and calcium-imaging analysis of HEK293 cells transfected with pCVR2; assay type: cell-based
VR1 [3] = molecular target: T1, VR1; test: Whole-cell patch clamp of VR1-transfected HEK293 cells, desensitization of capsaicin-evoked current; assay type: cell-based
Procedure: Patch-clamp recordings were carried out with transiently transfected HEK293 cells at 22° C. Standard bath solution for whole-cell recordings contained (mM) 140 NaCl, 5 KCl, 2 MgCl2, 2 CaCl2, 10 HEPES, 10 glucose, pH 7.4 (adjusted with NaOH). In calcium-free bath solution, CaCl2 was removed and 5 mM EGTA was added.
Bath solution for outside-out patch recordings and pipette solution for inside-out patch recordings contained (mM) 140 NaCl, 10 HEPES, pH 7.4 (adjusted with NaOH). Bath solution for inside-out patch recordings and pipette solutions for outside-out patch recordings and ion substitution experiments contained: (mM) 140 NaCl, 10 HEPES, 5 EGTA, pH 7.4 (adjusted with NaOH). Pipette solution for whole-cell recordings contained (mM) 140 CsCl (or 130 CsAspartate and 10 NaCl), 5 EGTA, 10 HEPES, pH 7.4 (adjusted with CsOH).
Whole-cell recording data were sampled at 20 kHz and filtered at 5 kHz for analysis (Axopatch 200 amplifier with pCLAMP software, Axon Instruments). Single-channel recording data were sampled at 10 kHz and filtered at 1 kHz. Permeability ratios for monovalent cations to Na (PX/PNa) were calculated as follows:

VR1 [4] = molecular target: T1, VR1; test: Two-electrode voltage clamp of VR1-injected oocytes: capsaicin, heat, heat plus ruthenium red; assay type: cell-based; conditions: n=5; for mean inward current response ± s.e.m.: Vhold=-60 mV
Procedure: To determine whether VR1 could mediate similar responses to heat in a different cellular environment, heat activation of VR1 was tested in the oocyte system. Oocytes injected with either VR1 cRNA or water were subjected to two-electrode voltage-clamp (Vhold=−60 mV) while the temperature of the perfusing buffer was raised from 22.7° C. to the level indicated, then held constant for 60 sec. (VR1, n =8; water, n=6 independent cells).
(§1) The current tracings shown in FIG. 17 were generated from representative VR1- or water-injected oocytes (Vhold=−60 mV) during successive applications of the indicated stimuli.

water-injected oocytes = test: Two-electrode voltage clamp of water-injected control oocytes: capsaicin, heat, heat plus ruthenium red; assay type: cell-based, Xenopus
Procedure: To determine whether VR1 could mediate similar responses to heat in a different cellular environment, heat activation of VR1 was tested in the oocyte system. Oocytes injected with either VR1 cRNA or water were subjected to two-electrode voltage-clamp (Vhold=−60 mV) while the temperature of the perfusing buffer was raised from 22.7° C. to the level indicated, then held constant for 60 sec. (VR1, n =8; water, n=6 independent cells). The asterisk indicates a significant difference from water-injected oocytes (T-test, P<0.0005).
as §1

VRRP-1 = molecular target: T2, VRRP-1 (Rattus norvegicus, UniProt Q9WUD2); test: Activation of VRRP-1 by capsaicin
T2 sequence (Q9WUD2 1-761): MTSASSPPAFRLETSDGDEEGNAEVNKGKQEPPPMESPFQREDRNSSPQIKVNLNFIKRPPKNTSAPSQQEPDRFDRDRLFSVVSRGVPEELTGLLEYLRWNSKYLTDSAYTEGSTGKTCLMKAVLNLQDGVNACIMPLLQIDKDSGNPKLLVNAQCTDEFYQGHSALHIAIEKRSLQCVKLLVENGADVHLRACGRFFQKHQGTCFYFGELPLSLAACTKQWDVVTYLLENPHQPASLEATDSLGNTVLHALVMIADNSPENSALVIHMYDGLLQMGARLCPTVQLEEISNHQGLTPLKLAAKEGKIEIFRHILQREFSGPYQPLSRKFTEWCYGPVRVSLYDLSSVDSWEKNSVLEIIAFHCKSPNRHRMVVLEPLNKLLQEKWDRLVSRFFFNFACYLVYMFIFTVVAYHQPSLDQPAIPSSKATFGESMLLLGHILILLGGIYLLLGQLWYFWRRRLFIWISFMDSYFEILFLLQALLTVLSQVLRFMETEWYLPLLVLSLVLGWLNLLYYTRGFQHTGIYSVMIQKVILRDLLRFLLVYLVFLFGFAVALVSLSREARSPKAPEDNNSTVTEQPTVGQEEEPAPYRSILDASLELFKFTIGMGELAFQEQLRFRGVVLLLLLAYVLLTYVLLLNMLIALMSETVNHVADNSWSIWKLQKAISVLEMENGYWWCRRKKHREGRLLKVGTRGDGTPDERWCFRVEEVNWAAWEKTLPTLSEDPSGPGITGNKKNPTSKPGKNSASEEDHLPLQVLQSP

VR1 [5] = molecular target: T1, VR1; test: Hydrogen ion potentiation of capsaicin response in VR1-expressing oocytes; assay type: cell-based; conditions: 10 μM capsaicin
Source text: To address this possibility, the effects of hydrogen ions on the cloned vanilloid receptor were examined using the oocyte expression system. […] The pH of the bath solution was changed during the experiment (as indicated by the horizontal bars in FIG. 13).

T1 sequence (O35433 whole entry): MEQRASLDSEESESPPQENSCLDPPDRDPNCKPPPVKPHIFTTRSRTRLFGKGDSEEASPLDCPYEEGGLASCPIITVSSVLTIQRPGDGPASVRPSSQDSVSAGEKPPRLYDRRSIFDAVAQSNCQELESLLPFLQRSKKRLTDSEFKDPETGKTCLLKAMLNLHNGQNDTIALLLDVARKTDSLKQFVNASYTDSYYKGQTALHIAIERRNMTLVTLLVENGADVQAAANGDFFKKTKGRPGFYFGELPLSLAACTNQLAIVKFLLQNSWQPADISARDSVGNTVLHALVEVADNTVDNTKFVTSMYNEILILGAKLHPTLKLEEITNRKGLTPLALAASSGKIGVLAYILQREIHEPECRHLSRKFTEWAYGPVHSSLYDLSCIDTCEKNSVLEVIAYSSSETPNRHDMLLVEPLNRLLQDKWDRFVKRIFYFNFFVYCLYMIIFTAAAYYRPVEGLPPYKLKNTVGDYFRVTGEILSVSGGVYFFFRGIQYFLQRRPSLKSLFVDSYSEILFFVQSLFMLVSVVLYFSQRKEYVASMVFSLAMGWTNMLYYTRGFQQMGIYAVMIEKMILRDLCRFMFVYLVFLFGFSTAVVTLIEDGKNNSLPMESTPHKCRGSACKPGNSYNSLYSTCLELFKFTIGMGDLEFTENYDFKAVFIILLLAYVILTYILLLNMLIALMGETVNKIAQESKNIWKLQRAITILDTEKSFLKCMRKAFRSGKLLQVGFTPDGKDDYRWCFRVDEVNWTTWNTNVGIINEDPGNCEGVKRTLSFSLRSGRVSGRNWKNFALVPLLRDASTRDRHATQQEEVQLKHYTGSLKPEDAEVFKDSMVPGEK

C=C(C)[C@]12C[C@@H](C)[C@@]34O[C@](Cc5ccccc5)(O[C@@H]1[C@@H]3C=C(COC(=O)Cc1ccc(O)c(OC)c1)C[C@]1(O)C(=O)C(C)=C[C@@H]41)O2 [resiniferatoxin]
EC50 (VR1 [1]): 39.1 nM | potency relative to capsaicin (VR1 [1]; EC50 comparison in VR1-expressing oocytes): approximately 20 fold | recovery of current response following agonist removal (VR1 [1]; VR1-expressing oocytes): often failed to recover | Hill coefficient (VR1 [1]): 1.95 | response of the encoded protein ([2]; high doses of resiniferatoxin): responds

Oc1cc2c(cc1O)CN(C(=S)NCCc1ccc(Cl)cc1)CCC2 [capsazepine]
IC50 (VR1 [1]; VR1-expressing oocytes, CaCl2 2 mM in place of BaCl2, read-out: IC50, block of capsaicin-evoked responses): 283 nM | antagonism of responses to resiniferatoxin (50 nM) (VR1 [1]; capsazepine 5 μM): reversibly antagonized | block of capsaicin activity (cap; 0.6 μM) (VR1 [1]; capsazepine 10 μM): reversible

COc1cc(CNC(=O)CCCC/C=C/C(C)C)ccc1O [capsaicin]
decrease of response between first and third applications (VR1 [3]; absence of extracellular calcium, n=3): 4.7±2.3% | decrease of response between first and third applications (desensitizing component) (VR1 [3]; calcium-containing bath solution, n=5): 87±4.3% | recovery of current response following agonist removal (VR1 [1]; VR1-expressing oocytes): returned rapidly to baseline | Hill coefficient (VR1 [1]): 2.08 | mean inward current response ± s.e.m. (VR1 [4]; capsaicin 1 μM): 1221±148 nA | response to capsaicin (water-injected oocytes): no response | response of the encoded protein ([2]; capsaicin): not to capsaicin | activation of VRRP-1 (VRRP-1): does not appear to be activated | effect of reduced pH on capsaicin response (VR1 [5]): did not augment

COc1ccc(CCCOC(Cn2ccnc2)c2ccc(OC)cc2)cc1 (centres unmarked) [SKF 96365]
effect on capsaicin-evoked currents (VR1 [1]; SKF 96365 20 μM, VR1-expressing oocytes): no effect

N.N.N.N.N.N.N.N.N.N.N.N.N.N.[Cl-].[Cl-].[Cl-].[Cl-].[Cl-].[Cl-].[O-2].[O-2].[Ru+3].[Ru+3].[Ru+4] [ruthenium red]
antagonism of responses to resiniferatoxin (50 nM) (VR1 [1]; ruthenium red 10 μM): reversibly antagonized | block of capsaicin-evoked responses (cap; 0.6 μM) (VR1 [1]; ruthenium red 10 μM): blocked capsaicin-evoked responses | mean inward current response ± s.e.m. (VR1 [4]; heat (50° C.) plus ruthenium red 10 μM): 243±47 nA | inhibition of heat response (VR1 [4]; ruthenium red 10 μM, heat 50° C., VR1-injected oocytes): 88±2% | inhibition of heat response (water-injected oocytes; ruthenium red 10 μM, n=5): 21±26%
